{
  "source": "patent US20200390762A1",
  "about": "“METHOD OF TREATING HAND-FOOT SYNDROME AND SYMPTOMS ASSOCIATED THEREWITH” (GALDERMA S.A., priority 2014, published 2020)",
  "test_system": "murine UVB-induced epidermal hyperplasia model",
  "assay": "Murine UVB-induced epidermal hyperplasia model: epidermis thickness (H&E histology)",
  "type": "in vivo, SKH1 mice",
  "details": "UVB 120 mJ/cm^2",
  "protocol": "The back skin of the SKH1 mice was exposed to 120 mJ/cm^2 UVB using the Biospectra system equipped with UVB sunlamps with a maximum emission peak at 312 nm. Irradiations were performed under isoflurane gaseous anesthesia. Vehicle (PEG400/EtOH/PHY (30/20/50) p/p) or brimonidine at 0.2% or 2% was administered by topical route (100 μl) on a 10 cm^2-area on the back using a micropipette. The area is located on the upper part of the back to prevent the animals from licking themselves. […]\nOne hour after the third topical treatment and one hour before euthanasia, mice received an i.p. injection of 5-ethynyl-2′-deoxyuridine (EdU) at 100 mg/kg. […] For epidermal thickness, two sections per animal (7 μm) were stained in H&E. Skin histology and the epidermis thickness were analyzed using image analysis (mScope 3.9, Aurora mScope) on scanned slide pictures (NanoZoomer C9600-12, Hamamatsu Photonics K.K). […] Nuclei were also stained with DAPI (5 mg/ml) diluted in Vectashield Hard Set Mounting medium for fluorescence ref: 1-1400 Vector Laboratories). The number of keratinocyte stained with Alexa Fluor® 594 was counted from digital images (NanoZoomer C9600-12, Hamamatsu Photonics K.K) and the epidermis length of each section determined using an in-house dedicated tool. […]",
  "note": "Counter-ions that a name gives are not always drawn.",
  "data": [
    {"molecule": "Brc1c(NC2=NCCN2)ccc2nccnc12", "note": "[brimonidine tartrate, (5-Bromo-quinoxalin-6-yl)-(4,5-dihydro-1H-imidazol-2-yl)-amine (Brimonidine)]", "values": [
      {"measurement": "inhibition of acanthosis (epidermis thickness)", "setting": "0.2% topical, pre-treatment", "value": "no effect"},
      {"measurement": "inhibition of acanthosis (epidermis thickness)", "setting": "2% topical, pre-treatment (1 h before UV irradiation, then twice more at 23 hours apart)", "value": "−23", "unit": "%"}
    ]}
  ]
}
